# Measurements: patent US11389415B2, “Methods of regulating cannabinoid receptor activity-related disorders and diseases” (The United States of America as represented by the …, priority 2012, dated 2022)
# Tests used:
# HepG2 and PANC-1 cells = test: Cell morphology and EGFR expression in HepG2 and PANC-1 cells; assay type: cell-based, human
# Method: FIGS. 26A-26C show MNF interferes with inducible changes in cell morphology and expression of EGFR. […] White arrows show individual cells with filopodia. FIG. 26C, Cell lysates were prepared from similar studies and immunoblotted for EGFR. The membranes were reprobed for Hsp90, which served as a loading control.
# Western blot analysis. For detection of intracellular signaling proteins, cells were lysed in radioimmunoprecipitation buffer containing EGTA and EDTA (Boston BioProducts, Ashland, Mass.). The lysis buffer contained a protease inhibitor cocktail (Sigma-Aldrich) and phosphatase inhibitor cocktail (Calbiochem, San Diego, Calif.). Equivalent amount of proteins (14 and 54 μg/well for PANC-1 and HepG2 cells, respectively) were separated on 4 to 12% precast gels (Invitrogen, Carlsbad, Calif.) using SDS-polyacrylamide gel electrophoresis under reducing conditions and then electrophoretically transferred onto polyvinylidene fluoride membrane (Invitrogen). Western blots were performed according to standard methods, which involved blocking in 5% non-fat milk and incubated with the antibody of interest, followed by incubation with a secondary antibody conjugated with the enzyme horseradish perodixase. The detection of immunoreactive bands was performed by chemiluminescence using the ECL Plus Western Blotting Detection System (GE Healthcare, Piscataway, N.J.). The quantification of bands was done by volume densitometry by using ImageJ software. The rabbit polyclonal antibodies against EGFR were obtained from Cell Signaling Technology, Inc. (Beverly, Mass.) and the monoclonal anti-Hsp90 was purchased from Santa Cruz Biotechnology, Inc. (Santa Cruz, Calif.).
# [1] = In vitro metabolic stability, human liver microsomes; assay type: in vitro ADME; conditions: 37° C.
# Method: FIG. 10 presents the data from the in vitro metabolic stability study in which MNF was incubated (in duplicate) with active and heat-inactivated human (HLM) and rat (RLM) liver microsomes and cofactors at 37° C. Aliquots were removed at 0, 15, 30 and 60 minutes and the amount of test compound (MNF) remaining at each time point was determined by LC-MS/MS.
compound,measurement,setting,value
"COc1ccc(C[C@@H](C)NC[C@H](O)c2cc(O)cc(O)c2)c2ccccc12 [(R,R′)-MNF, (R,R′)-4′-methoxy-1-naphthylfenoterol]",effect on O-1602-induced EGFR levels,HepG2 and PANC-1 cells; 1 μM pretreatment,MNF blocked this effect
same,effect on change in morphology induced by AM251 and O-1602,"HepG2 and PANC-1 cells; 1 μM pretreatment 30 minutes, agonists 5 μM 16 hours",rendered the cells refractory to the change in morphology induced by AM251 and O-1602
same,stability under the incubation conditions,[1]; heat-inactivated microsome controls,somewhat unstable under the incubation conditions
same,"metabolic stability, MNF levels","[1]; human liver microsomes and cofactors, 0-60 minutes",greater decrease in MNF levels
